ChEMBL document CHEMBL1131759, “A mutational study of a Diels-Alderase catalytic antibody” (Bioorg Med Chem Lett, 1999)

Key:
Type in all cases: ADME
[1] = Kinetic constant for the SerL91Val (germline)
[2] = Kinetic constant for the 39-A11 antibody
[3] = Kinetic constant for the Val91Tyr (39-A11)
[4] = Kinetic constant for the germline antibody

| Km [1] | Km [2] | Km [3] | Km [4] | Structure (SMILES) |
| --- | --- | --- | --- | --- |
| 1200 µM | 1200 µM | 2100 µM | 1400 µM | C=C/C=C/NC(=O)OCC(=O)O |
| 740 µM | 740 µM | 420 µM | 450 µM | CC(=O)Nc1ccc(N2C(=O)C=CC2=O)cc1 |
